Laboratory results as given in publication PMC10055046 (bioRxiv, 2023).

Tests used:
OCT2CS = molecular target: T1, OCT2CS (Homo sapiens, UniProt O15244); assay: [3H]-verapamil accumulation in OCT2CS-injected oocytes; assay type: cell-based; settings: 100 nM [3H]-verapamil, 30 min
T1 sequence (O15244 1-555): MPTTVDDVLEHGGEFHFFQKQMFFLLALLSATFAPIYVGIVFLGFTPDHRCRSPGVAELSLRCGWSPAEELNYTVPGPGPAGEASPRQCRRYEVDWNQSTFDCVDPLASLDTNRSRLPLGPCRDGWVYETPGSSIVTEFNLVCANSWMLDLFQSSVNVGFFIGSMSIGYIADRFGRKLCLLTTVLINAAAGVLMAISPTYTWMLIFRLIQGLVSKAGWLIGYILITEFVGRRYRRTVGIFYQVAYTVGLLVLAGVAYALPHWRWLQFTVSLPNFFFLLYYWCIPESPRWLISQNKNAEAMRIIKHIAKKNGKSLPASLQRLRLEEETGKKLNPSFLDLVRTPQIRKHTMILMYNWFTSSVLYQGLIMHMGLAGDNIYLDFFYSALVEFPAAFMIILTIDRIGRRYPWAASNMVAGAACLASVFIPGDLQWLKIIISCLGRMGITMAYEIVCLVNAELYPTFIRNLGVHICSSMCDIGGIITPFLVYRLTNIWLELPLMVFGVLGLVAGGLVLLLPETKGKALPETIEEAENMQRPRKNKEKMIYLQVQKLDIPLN

WT hOCT1 = molecular target: T2, WT hOCT1 (Homo sapiens, UniProt O15245); settings: cited from earlier work
T2 sequence (O15245 1-554): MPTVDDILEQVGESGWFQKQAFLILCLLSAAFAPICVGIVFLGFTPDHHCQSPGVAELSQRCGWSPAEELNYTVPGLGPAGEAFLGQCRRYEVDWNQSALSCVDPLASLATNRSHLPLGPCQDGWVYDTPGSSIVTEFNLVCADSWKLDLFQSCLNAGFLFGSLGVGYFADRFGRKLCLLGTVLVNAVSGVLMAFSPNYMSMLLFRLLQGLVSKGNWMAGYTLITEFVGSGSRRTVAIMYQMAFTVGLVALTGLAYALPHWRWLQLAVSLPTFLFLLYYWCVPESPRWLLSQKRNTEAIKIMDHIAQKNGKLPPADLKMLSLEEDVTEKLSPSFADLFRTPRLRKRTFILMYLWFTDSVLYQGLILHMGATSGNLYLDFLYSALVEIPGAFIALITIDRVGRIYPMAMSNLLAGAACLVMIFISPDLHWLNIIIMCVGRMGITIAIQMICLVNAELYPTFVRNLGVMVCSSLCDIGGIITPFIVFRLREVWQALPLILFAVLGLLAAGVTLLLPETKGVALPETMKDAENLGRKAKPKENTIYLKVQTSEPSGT

| SMILES | Uptake of [3H]-verapamil by OCT2CS (OCT2CS; n=3, listed as VPM) | Uptake of [3H]-verapamil by OCT2CS (OCT2CS; n=3, listed as verapamil) | Kt for metformin, WT hOCT1, previous reports (WT hOCT1) |
| --- | --- | --- | --- |
| COc1ccc(CCN(C)CCCC(C#N)(c2ccc(OC)c(OC)c2)C(C)C)cc1OC (racemic) [(±)-VPM, verapamil] | does not mediate uptake | does not accumulate | – |
| CN(C)C(=N)N=C(N)N [metformin] | – | – | 1 to 5 mM |
